Test results reported in patent US20190031665A1, “DERIVATIVES OF PYRROLOIMIDAZOLE OR ANALOGUES THEREOF WHICH ARE USEFUL FOR THE TREATMENT OF INTER ALIA CANCER” (EMCURE PHARMACEUTICALS LIMITED, priority 2016, published 2019).

Columns and labels:
[1] = biological target: T1, human tryptophan 2,3-dioxygenase (hTDO) (Homo sapiens, UniProt P48775); assay: In-vitro human tryptophan 2,3-dioxygenase (TDO) enzyme assay; format: biochemical; details: for inhibition at 1 µM: hTDO enzyme at 1.0 μM concentration; for inhibition at 10 µM: hTDO enzyme at 10.0 μM concentration
T1 construct: His tag (N); purchased BPS Bioscience, San Diego, Calif., USA; host or cells: E. coli
Description: (§1) In the in-vitro human tryptophan 2,3-dioxygenase (hTDO) enzyme assay for screening inhibitor compounds, hTDO with an N-terminal histidine tag expressed and purified from E. coli (BPS Bioscience, San Diego, Calif., USA) was used. All other materials were procured from Sigma-Aldrich, St. Louis, Mo., USA.
The assay monitoring method for the conversion of L-tryptophan to N-formylkynurenine by hTDO was carried out as follows. hTDO (125 ng) was incubated in the presence of 200 μM L-tryptophan, 100 mM sodium phosphate buffer (pH 7.0), 0.01% Tween-20 and 100 μM ascorbic acid at about 37° C. for about 60 minutes. The reaction was terminated with 200 mM piperidine (PIP) and further incubated at about 65° C. for about 20 minutes to convert N-formylkynurenine (NFK) to NFK-PIP. The reaction mixture was then incubated at room temperature for about 75 minutes. The fluorescence intensity was read in a fluorescence microplate reader at an excitation wavelength of 400 nm and emission wavelength of 500 nm. Percent inhibition at each concentration of test compounds was determined by estimating the decrease in NFK-PIP. Data were analyzed using nonlinear regression to generate IC50 values using Graph Pad Prism® 6.

[2] = biological target: T2, human indoleamine 2,3-dioxygenase 1 (hIDO1) (Homo sapiens, UniProt P14902); assay: In-vitro human indoleamine 2,3-dioxygenase 1 (IDO1) enzyme assay; format: biochemical; details: for IC50: hIDO1 enzyme; for inhibition at 1 µM: hIDO1 enzyme at 1.0 μM concentration; for inhibition at 10 µM: hIDO1 enzyme at 10.0 μM concentration
T2 construct: His tag (N); purchased BPS Bioscience, San Diego, Calif., USA; host or cells: E. coli
Description: as §1, with “In-vitro human indoleamine 2,3-dioxygenase 1 (IDO1) enzyme assay: In” for “In”, “indoleamine” for “tryptophan”, “1 (hIDO1)” for “(hTDO)”, “hIDO1” for “hTDO”
The assay method for monitoring the conversion of L-tryptophan to N-formylkynurenine by hlDO1 was carried out as follows. hlDO1 (50 ng) was incubated with tryptophan (80 μM) in the presence of ascorbic acid (10 mM), methylene blue (10 μM), catalase (100 μg/ml) and 0.01% Tween-20 in sodium phosphate buffer (50 mM; pH 6.5) at 37° C. for 60 min. The reaction was terminated with 200 mM piperidine (PIP) and further incubated at about 65° C. for about 20 minutes to convert N-formylkynurenine (NFK) to NFK-PIP. The reaction mixture was then incubated at room temperature for about 1 hour. The fluorescence intensity was read in a fluorescence microplate reader at an excitation wavelength of 400 nm and emission wavelength of 500 nm. Percent inhibition at each concentration of test compounds was determined by estimating the decrease in NFK-PIP. Data were analyzed using nonlinear regression to generate IC50 values using Graph Pad Prism® 6.

T1 sequence (P48775 whole entry): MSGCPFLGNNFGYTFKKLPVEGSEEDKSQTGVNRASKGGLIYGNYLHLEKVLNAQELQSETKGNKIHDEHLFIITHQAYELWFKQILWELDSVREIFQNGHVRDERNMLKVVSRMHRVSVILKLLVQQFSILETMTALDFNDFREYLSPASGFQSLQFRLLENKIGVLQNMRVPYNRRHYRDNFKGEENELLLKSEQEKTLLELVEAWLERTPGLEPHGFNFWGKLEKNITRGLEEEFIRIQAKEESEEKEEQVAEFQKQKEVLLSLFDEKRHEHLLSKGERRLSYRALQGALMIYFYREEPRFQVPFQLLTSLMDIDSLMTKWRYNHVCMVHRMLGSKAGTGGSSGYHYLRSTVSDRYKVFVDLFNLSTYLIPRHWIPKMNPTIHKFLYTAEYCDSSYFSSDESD
T2 sequence (P14902 whole entry): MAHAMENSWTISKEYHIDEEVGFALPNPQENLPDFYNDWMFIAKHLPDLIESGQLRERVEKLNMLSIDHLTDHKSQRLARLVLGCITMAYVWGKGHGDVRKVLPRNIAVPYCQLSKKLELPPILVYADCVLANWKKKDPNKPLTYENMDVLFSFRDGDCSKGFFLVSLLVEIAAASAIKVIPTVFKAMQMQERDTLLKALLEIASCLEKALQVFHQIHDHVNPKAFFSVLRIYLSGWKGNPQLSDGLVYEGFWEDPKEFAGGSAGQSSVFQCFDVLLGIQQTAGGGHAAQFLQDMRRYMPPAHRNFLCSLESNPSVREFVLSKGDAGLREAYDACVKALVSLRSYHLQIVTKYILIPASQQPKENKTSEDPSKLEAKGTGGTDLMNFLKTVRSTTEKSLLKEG

Row | Compound | inhibition at 1 µM [1] [%] | IC50 [2] [nM] | inhibition at 1 µM [2] [%] | inhibition at 10 µM [2] [%] | inhibition at 10 µM [1] [%]
1 | CC1=C(c2ccccc2)C(CC(=O)c2ccc(C(=O)Nc3cccnc3)cc2)n2cncc21 (stereo not drawn) [Example 79] | ≥ 50 | > 500 | ≥ 50 | ≥ 50 | 
2 | CC1=C(c2ccc(C)cc2)C(CC(O)C2CCCCC2)n2cncc21 (stereo not drawn) [Example 87, 1-Cyclohexyl-2-(7-methyl-6-(p-tolyl)-5H-pyrrolo[1,2-c]imidazol-5-yl)ethan-1-ol] | ≥ 50 |  | ≤ 50 | ≥ 50 | 
3 | CC1=C(c2cccc(F)c2)C(CC(O)c2ccccc2)n2cncc21 (stereo not drawn) [Example 16, 2-[6-(3-Fluoro-phenyl)-7-methyl-5H-pyrrolo[1,2-c]imidazol-5-yl]-1-phenyl-ethanol] |  |  | ≤ 50 | ≥ 50 | ≥ 50
4 | OC(CC1C2=C(CCCC2)c2cncn21)c1ccccc1 (stereo not drawn) [Example 2, 1-Phenyl-2-(6,7,8,9-tetrahydro-5H-imidazo[5,1-a]isoindol-5-yl)-ethanol] |  |  |  | ≤ 50 | ≥ 50
5 | CC1=C(c2ccccc2)C(CC(O)c2ccc(-c3ccncc3)cc2)n2cncc21 (stereo not drawn) [Example 59] | ≤ 50 |  | ≤ 50 | ≥ 50 | 
6 | Cc1ccc(S(=O)(=O)N2CCC3=C(C2)C(CC(=O)c2ccccc2)n2cncc23)cc1 (stereo not drawn) [Example 5] |  |  |  | ≤ 50 | 
7 | CC1=C(c2ccccc2)C(CC(O)c2ccc(C(=O)Nc3ccc(Cl)cc3)cc2)n2cncc21 (stereo not drawn) [Example 82] | ≤ 50 |  | ≤ 50 | ≥ 50 | 
8 | COc1ccccc1C(=O)CC1C(c2ccccc2)=C(C)c2cncn21 (stereo not drawn) [Example 32, 1-(2-methoxyphenyl)-2-(7-methyl-6-phenyl-5H-pyrrolo[1,2-c]imidazol-5-yl)ethan-1-one] |  |  | ≤ 50 | ≤ 50 | ≥ 50
9 | CC1=C(c2ccccc2)C(CC(O)C2CCN(C(=O)c3ccnc(C)c3)CC2)n2cncc21 (stereo not drawn) [Example 164, {4-[1-Hydroxy-2-(7-methyl-6-phenyl-5H-pyrrolo[1,2-c]imidazol-5-yl)-ethyl]-piperidin-1-yl}-(2-methyl-pyridin-4-yl)-methanone] | ≤ 50 |  | ≤ 50 | ≥ 50 | 
10 | CC1=C(c2ccccc2)C(CC(=O)c2cccc3ccccc23)n2cncc21 (stereo not drawn) [Example 40, 2-(7-methyl-6-phenyl-5H-pyrrolo[1,2-c]imidazol-5-yl)-1-(naphthalen-1-yl)ethan-1-one] | ≥ 50 |  | ≥ 50 | ≥ 50 | 
11 | CC1=C(c2ccccc2)C(CC(=O)c2ccc(-c3ccccc3)cc2)n2cncc21 (single isomer, unassigned; isomer-i) [Example 42, 1-([1,1′-biphenyl]-4-yl)-2-(7-methyl-6-phenyl-5H-pyrrolo[1,2-c]imidazol-5-yl)ethan-1-one, Isomer-I] | ≥ 50 | < 500 | ≥ 50 | ≥ 50 | 
12 | CC1=C(c2ccccc2)C(CC(O)C2CCN(Cc3ccccc3)CC2)n2cncc21 (stereo not drawn) [Example 141] | ≤ 50 |  | ≤ 50 | ≤ 50 | 
13 | Cc1ccc(S(=O)(=O)N2CCC3=C(C2)C(CC(O)c2ccccc2)n2cncc23)cc1 (stereo not drawn) [Example 6] |  |  |  | ≤ 50 | 
14 | OC(CC1C=C(c2ccccc2)c2cncn21)c1ccccc1 (stereo not drawn) [Example 14] |  |  |  | ≤ 50 | 
15 | CC1=C(c2ccccc2)c2cncn2C1CC(=O)c1ccccc1 (stereo not drawn) [Example 21] |  |  | ≤ 50 | ≤ 50 | 
16 | O=C(CC1C=C(c2ccccc2)c2cncn21)c1ccccc1 (stereo not drawn) [Example 13] |  |  |  | ≤ 50 | 

Continued, values first:

Row | inhibition at 1 µM [1] [%] | IC50 [2] [nM] | inhibition at 1 µM [2] [%] | inhibition at 10 µM [2] [%] | inhibition at 10 µM [1] [%] | Compound
17 | ≤ 50 |  | ≤ 50 | ≤ 50 |  | CC1=C(c2ccccc2)C(CC(=O)N2CCC(O)CC2)n2cncc21 (stereo not drawn) [Compound 175, 1-(4-Hydroxypiperidin-1-yl)-2-(7-methyl-6-phenyl-5H-pyrrolo[1,2-c]imidazol-5-yl)ethan-1-one]
18 | ≥ 50 | > 500 | ≥ 50 | ≥ 50 | ≥ 50 | CC1=C(c2ccccc2)C(CC(=O)c2cccc(F)c2)n2cncc21 (stereo not drawn) [Example 20, 1-(3-Fluoro-phenyl)-2-(7-methyl-6-phenyl-5H-pyrrolo[1,2-c]imidazol-5-yl)-ethanone]
19 | ≤ 50 | < 500 | ≥ 50 | ≥ 50 |  | CC1=C(c2ccccc2)C(CC(O)C2CCC(c3ccccc3)CC2)n2cncc21 (stereo not drawn) [Example 186]
20 | ≥ 50 | < 500 | ≥ 50 | ≥ 50 | ≥ 50 | CC1=C(c2ccccc2)C(CC(=O)c2cccc(Cl)c2)n2cncc21 (stereo not drawn) [Example 17, 1-(3-Chloro-phenyl)-2-(7-methyl-6-phenyl-5H-pyrrolo[1,2-c]imidazol-5-yl)-ethanone]
21 | ≥ 50 |  | ≤ 50 | ≥ 50 |  | CC1=C(c2ccccc2)C(CC(=O)C23CC4CC(CC(C4)C2)C3)n2cncc21 (stereo not drawn) [Example 107]
22 | ≥ 50 |  | ≤ 50 | ≥ 50 |  | CC1=C(c2ccccc2)C(CC(=O)c2ccsc2)n2cncc21 (stereo not drawn) [Example 45, 2-(7-methyl-6-phenyl-5H-pyrrolo[1,2-c]imidazol-5-yl)-1-(thiophen-3-yl)ethan-1-one]
23 |  | < 500 |  |  |  | CC1=C(c2ccccc2)C(CC(O)C2CCC(O)CC2)n2cncc21 (single isomer, unassigned) [Example 122]
24 | ≥ 50 | < 500 | ≥ 50 | ≥ 50 | ≥ 50 | CC1=C(c2ccccc2)C(CC(O)C2CCCCC2)n2cncc21 (stereo not drawn) [Example 89, 1-Cyclohexyl-2-(7-methyl-6-phenyl-5H-pyrrolo[1,2-c]imidazol-5-yl)-ethane-1-ol]
25 | ≥ 50 | > 500 | ≥ 50 | ≥ 50 | ≥ 50 | CC1=C(c2ccccc2)C(CC(F)C2CCCCC2)n2cncc21 (stereo not drawn) [Example 168, 5-(2-Cyclohexyl-2-fluoro-ethyl)-7-methyl-6-phenyl-5H-pyrrolo[1,2-c]imidazole]
26 | ≥ 50 |  | ≤ 50 | ≥ 50 |  | CC1=C(c2ccccc2)C(C[C@H](O)C2CCC(C(=O)O)CC2)n2cncc21 (stereo partly drawn) [Example 133]
27 | ≥ 50 | < 500 | ≥ 50 | ≥ 50 |  | COC(=O)[C@H]1CC[C@@H]([C@@H](O)CC2C(c3ccccc3)=C(C)c3cncn32)CC1 (stereo partly drawn) [Example 131]
28 |  |  | ≤ 50 | ≤ 50 |  | CCCNC(=O)CC1C(c2ccccc2)=C(C)c2cncn21 (stereo not drawn) [Example 172, 2-(7-Methyl-6-phenyl-5H-pyrrolo[1,2-c]imidazol-5-yl)-N-propylacetamide]
29 |  |  |  | ≥ 50 |  | CC1=C(c2ccccc2F)C(CC(=O)C2CCC(O)CC2)n2cncc21 (single isomer, unassigned) [Example 98]
30 |  | > 500 |  |  |  | CC1=C(c2ccccc2)C(CC(O)C2CCN(C(=O)c3ccccn3)CC2)n2cncc21 (single isomer, unassigned) [Example 161]
31 |  | > 500 |  | ≥ 50 |  | CC1=C(c2ccccc2)C(CC(O)C2CCC(O)CC2)n2cncc21 (stereo not drawn) [Example 111]
